Source: patent publication US5464819A, “Physiologically active peptide having immunoregulatory activities” (priority 1990, dated 1995)
Ends that are not written are not given here.

How the values were obtained:
Toxoplasma strain RH [1] = assay: Activity to inhibit multiplication of Toxoplasma (percentage of cells containing Toxoplasma, Toxo-GIF activity, cytotoxicity) in mouse peritoneal macrophages; type: cell-based, Toxoplasma gondii
Procedure: (§1) In the present invention, the activity to inhibit multiplication of Toxoplasma is evaluated by two characteristics, i.e. "percentage of cells containing Toxoplasma" and "Toxoplasma growth inhibitory factor activity (hereinafter referred to as "Toxo-GIF activity")". These characteristics are measured according to the methods described in Nagasawa, H., et.al., Jpn. J. Vet. Sci., vol. 43, pages 307-319, 1981 and Sakurai, H., et.al., Jpn. J. Trop. Med. Hyg., vol. 10, pages 183-195, 1982.
An adult BALB/c female mouse is intraperitoneally injected with 1 ml of a sterilized saline containing 0.2% of glycogen, and, 5 days later, the peritoneal cavity of the mouse is washed with cold Hank's balanced salt solution (hereinafter referred to as "HBSS"), thereby taking up peritoneal exudate cells. These cells are washed by centrifugation at 250×G for 5 min twice, and suspended in Tc199 culture medium containing 10% of heat-inactivated calf serum (hereinafter referred to as "10%-HICS-Tc199 culture medium", see Igaku No Ayumi (Progress in Medicine), 62, No. 6, published on Aug. 5, 1967) in a concentration of 1×10^6 cells/mi. This cell suspension is portionwise poured, 1 ml each, into culture wells (Multidish-tray, FB-16-24-TC, manufactured and sold by Limblo Chemical Co., U.S.A.), which are covered by a circular cover glass having a diameter of 15 mm, and cultured in a 5% CO2 -incubator. In order to remove contaminating erythrocytes and lymphocytes, each of the culture wells is gently rinsed with HBSS three times at intervals of 2 hours, and then cultivated overnight in the CO2 -incubator to thereby form a mouse macrophage monolayer on the cover glass.
Each of the above-obtained monolayers is again rinsed with 10%-HICS-Tc199 culture medium, and inoculated with 1×10^5 tachyzoites of Toxoplasma strain RH per 1×10^6 mouse macrophages or canine monocytes so that the macrophages are infected thereby. Free Toxoplasma organisms having not penetrated into the cells are removed by washing with HBSS one hour after the inoculation.
(§2) A 10%-HICS-Tc199 culture medium containing a peptide sample is applied to the cover glass in an amount of 1 ml per 1×10^6 cells for both of the mouse macrophages and the canine monocytes, followed by cultivation for 48 hours, and then stained with May-Grunwald-Giemsa to thereby count the number of Toxoplasma organisms in the cells. Within a certain visual field on the cover glass, 100 cells are checked to count the number of cells which contain no Toxoplasma, the number of cells which contain one to five Toxoplasm organisms and the number of cells which contain 6 or more Toxoplasma organisms, and the count results are expressed by percentage. Similar checking and counting are performed within four other visual fields on the cover glass. From the data obtained on all of the five visual fields, an average value and a standard deviation are calculated to determine the percentage of cells containing Toxoplasma.
As a peptide sample, use is made of one obtained by dissolving a powdery peptide in 3 ml of 10%-HICS-Tc199 culture medium and then filtering and sterilizing the resultant solution through a membrane filter having a pore size of 0.46 μm. […]
The thus obtained crude Obioactin is fractionated by DEAE-5PW column (manufactured and sold by Tosoh Co., Japan) having an inside diameter of 21.5 mm and a length of 15 cm by NaCl concentration gradient ion exchange chromatography in which a concentration gradient of NaCl from 0M to 1M is made in 0.02M ammonium acetate as a basic solution. Each of the fractions is lyophilized, desalted by gel filtration through Sephadex G-15 (trade name of a gel manufactured and sold by Pharmacia Fine Chemicals Co., Sweden) and lyophilized again.

Toxoplasma strain RH [2] = assay: Activity to inhibit multiplication of Toxoplasma in canine monocytes; type: cell-based, Toxoplasma gondii; conditions: Obio-2 0.05 mg/ml, canine monocyte cell
Procedure: as §1
On the other hand, in the preparation of canine monocytes, 5 ml of blood is collected from cervical vein as a peripheral blood, and 0.05% of heparin is added. This blood is subjected to fractionation according to the Conray 400-Ficoll method (see Tsuji, H., Men-eki Jikken Sosaho (Procedure for Immunological Tests), 4th ed., Immunocells I-4, pages 443-446, published by Maeda Printing Co., Ltd., in 1979) to thereby obtain a mononuclear cell fraction. The obtained mononuclear cell fraction is subjected to centrifugation (800×G, 5 min., 4° C.) with HBSS and then with 10%-HICS-Tc199 culture medium, and suspended in 10%-HICS-Tc199 culture medium in a concentration of about 1×10^6 cells/mi. The resultant cell suspension is portionwise poured, 1 ml each, into the above-mentioned culture wells, which are covered by a circular cover glass having a diameter of 15 mm, and cultured in a 5% CO2 -incubator. The culturing is effected for 12 hours, and each of the culture wells is gently rinsed with HBSS three times, followed by cultivation overnight in the CO2 -incubator, to thereby form a canine monocyte monolayer on the cover glass.
Each of the above-obtained monolayers is again rinsed with 10%-HICS-Tc199 culture medium, and inoculated with 1×10^5 tachyzoites of Toxoplasma strain RH per 1×10^6 mouse macrophages or canine monocytes so that the macrophages are infected thereby. […]
A 10%-HICS-Tc199 culture medium containing a peptide sample is applied to the cover glass in an amount of 1 ml per 1×10^6 cells for both of the mouse macrophages and the canine monocytes, followed by cultivation for 48 hours, and then stained with May-Grunwald-Giemsa to thereby count the number of Toxoplasma organisms in the cells. […] From the data obtained on all of the five visual fields, an average value and a standard deviation are calculated to determine the percentage of cells containing Toxoplasma.
The Toxo-GIF activity, which is another activity useful for evaluating the activity to inhibit multiplication of Toxoplasma, is defined as a proportion of decrease of Toxoplasma (Tp)-containing cells (in percentage) attributed to the addition of a peptide sample, expressed by percentage, and calculated according to the following formula: Toxo-GIF Activity (%)= [formula] […]
(§3) The effect of the No. 5 peptide (Obio-2) is evaluated.

Toxoplasma strain RH [3] = assay: Activity to inhibit multiplication of Toxoplasma in human myocardial cells (Giardi Heart cell); type: cell-based, Toxoplasma gondii; conditions: Obio-2 0.05 mg/ml
Procedure: as §1
(§4) The cells are suspended in MEM-M culture medium containing 10% of heat-inactivated calf serum at a concentration of 1×10^6 cells/mi. This cell suspension is portionwise poured, 1 ml each, into culture wells (multidish-tray, FB-16-24-TC, manufactured and sold by Limblo Chemical Co., U.S.A.), which are covered by a circular cover glass having a diameter of 15 mm, and cultured in a 5% CO2 -incubator overnight to thereby obtain a cell monolayer (a human myocardial cell monolayer and a human cerebral cell monolayer) on the cover glass.
(§5) The obtained cell monolayer is rinsed with MEM-M culture medium, and inoculated with 1×10^5 tachyzoites of Toxoplasma strain RH per 1×10^6 cells with respect to each of the human myocardial cells and the human brain cells. Free Toxoplasma organisms having not penetrated into the cells are removed by washing with HBSS one hour after the inoculation.
(§6) An MEM-M culture medium containing a peptide sample is applied to the cover glass in an amount of 1 ml per 1×10^6 cells, followed by cultivation for 48 hours, and then stained with May-Grunwald-Giemsa to thereby count the number of Toxoplasma organisms in the cells. The percentage of cells containing Toxoplasma organisms is determined in the same manner as described above for mouse macrophages.
(§7) The Toxo-GIF activity, which is another activity useful for evaluating the activity to inhibit multiplication of Toxoplasma, is defined as a proportion of decrease of Toxoplasma (Tp)-containing cells (in percentage) attributed to the addition of a peptide sample, expressed by percentage, and calculated according to the following formula: Toxo-GIF Activity (%)= [formula]
as §3

Toxoplasma strain RH [4] = assay: Activity to inhibit multiplication of Toxoplasma in human cerebral cells (Flow 3000 cell); type: cell-based, Toxoplasma gondii; conditions: Obio-2 0.05 mg/ml
Procedure: as §1, §4, §5, §6, §7, §3

Toxoplasma = assay: Toxo-GIF activity of synthetic peptides used singly and in combination (host cells not stated); type: cell-based, Toxoplasma gondii; conditions: total mg/ml: Obio-1 0.49, Obio-2 0.50, Obio-3 0.45, Obio-1+Obio-2 0.49, Obio-1+Obio-3 0.46, Obio-2+Obio-3 0.47
Procedure: as §1, §2, §7

[5] = system: Methylcholanthrene induced tumor (MC tumor); assay: Effect of peptide injection on tumor multiplication in Methylcholanthrene induced tumor (MC tumor)-bearing mouse; type: in vivo; conditions: 28 days after inoculation with MC tumor cells; 30 μg/mouse intramuscularly every week; control 432±10.5
Procedure: (§8) Methylcholanthrene induced tumor cells excised from an MC induced tumor lump of a BALB/c mouse having, injected thereto, 0.5 mg of 20-Methylcholanthrene (manufactured and sold by Wako Pure Chemical Industries Ltd.), are suspended in RPMI-1640 culture medium, thereby obtaining a cell suspension of 2×10^7 cells/ml. 0.025 ml (5×10^5 MC tumor cells/mouse) of the cell suspension is intramuscularly injected under the skin on the back of a 6-week-old male mouse to inoculate the mouse with MC-tumor cells, thereby obtaining a tumor-bearing mouse.
(§9) Each of Obio-2 and Obio-3 is intramuscularly injected in an amount of 30 μg/mouse under the skin on the back of the mouse every week after the injection of the above MC tumor cell suspension to evaluate the inhibitory effect thereof on the multiplication of the tumor. Five tumor-bearing mice are employed for each test, and an average is taken.

[6] = system: mononuclear cells in spleen; assay: Number of mononuclear cells in spleen and histopathology of MC tumor-bearing mouse; type: in vivo; conditions: for Bleeding colonies at the tumor tissue portions (histopathological findings): MC tumor-bearing mice, large bleeding colonies in uninjected mice; for Spleen mononuclear cell count in tumor-bearing mice relative to normal mice: spleen mononuclear cells, saline 0.10; for Spleen mononuclear cell count in tumor-bearing mice relative to normal mice / Number of mononuclear cells per mouse: MC tumor-bearing mouse; for Number of mononuclear cells per mouse: spleen, 30 μg once a week, normal mouse 13.0 × 10^7, saline 1.3 × 10^7
Procedure: as §8, §9
On the other hand, the number of mononuclear cells in the spleen of tumor-bearing mice injected with Obio-2 and Obio-3 experience only a slight decrease, and retains as large a number as 65 to 70% of that of normal mice. In the histopathological findings of these spleens, no significant change is observed in the spleen follicles of both the tumor-bearing mouse groups injected with Obio-2 and Obio-3 and the tumor-bearing mouse group injected with none of them. However, in the mouse groups injected with Obio-2 and Obio-3, small mononuclear cells (small lymphocytes) and large monocytes in the spleen red marrow conspicuously gather in the mallow, especially around the vessels, whereas the control mouse group not injected with the peptide has only small lymphocytes in the marrow.

[7] = Obio-2 0.05 mg/ml, mouse macrophage
[8] = synthetic peptide 0.7 mM, mouse peritoneal macrophages

AEEPVV [peptide No. 5]
Concentration at which Toxo-GIF activity becomes appreciable / sufficient activity is detected (Toxoplasma strain RH [1]): 0.25 mg/mL
Percentage of cells containing Toxoplasma (Tp): 0 Tp (Toxoplasma strain RH [1]; [7]): 88.4 ± 7.6%
Percentage of cells containing Toxoplasma (Tp): 1-5 Tp (Toxoplasma strain RH [1]; [7]): 7.0 ± 4.5%
Percentage of cells containing Toxoplasma (Tp): ≥6 Tp/cell (Toxoplasma strain RH [1]; [7]): 4.6 ± 4.2%
Toxo-GIF (Toxoplasma strain RH [1]; [7]): 50.4%
Percentage of cells containing Toxoplasma (Tp): 0 Tp (Toxoplasma strain RH [1]; [8]): 64.4 ± 9.3%
Percentage of cells containing Toxoplasma (Tp): 1-5 Tp (Toxoplasma strain RH [1]; [8]): 32.8 ± 8.8%
Percentage of cells containing Toxoplasma (Tp): ≥6 Tp/cell (Toxoplasma strain RH [1]; [8]): 2.8 ± 1.1%
Toxo-GIF (Toxoplasma strain RH [1]; [8]): 61.6%
Percentage of cells containing Toxoplasma (Tp): 0 Tp (Toxoplasma strain RH [2]): 80.5 ± 6.4%
Percentage of cells containing Toxoplasma (Tp): 1-5 Tp (Toxoplasma strain RH [2]): 12.8 ± 5.4%
Percentage of cells containing Toxoplasma (Tp): ≥6 Tp/cell (Toxoplasma strain RH [2]): 6.7 ± 3.3%
Toxo-GIF (Toxoplasma strain RH [2]): 67.4%
Percentage of cells containing Toxoplasma (Tp): 0 Tp (Toxoplasma strain RH [3]): 80.7 ± 6.1%
Percentage of cells containing Toxoplasma (Tp): 1-5 Tp (Toxoplasma strain RH [3]): 10.6 ± 3.4%
Percentage of cells containing Toxoplasma (Tp): ≥6 Tp/cell (Toxoplasma strain RH [3]): 8.7 ± 2.1%
Toxo-GIF (Toxoplasma strain RH [3]): 57.7%
Percentage of cells containing Toxoplasma (Tp): 0 Tp (Toxoplasma strain RH [4]): 75.4 ± 7.4%
Percentage of cells containing Toxoplasma (Tp): 1-5 Tp (Toxoplasma strain RH [4]): 12.6 ± 6.8%
Percentage of cells containing Toxoplasma (Tp): ≥6 Tp/cell (Toxoplasma strain RH [4]): 2.1 ± 1.9%
Toxo-GIF (Toxoplasma strain RH [4]): 78.2%
Percentage of cells containing Toxoplasma (Tp): 0 Tp (Toxoplasma): 69.6 ± 11.5%
Percentage of cells containing Toxoplasma (Tp): 1-5 Tp (Toxoplasma): 24.0 ± 9.1%
Percentage of cells containing Toxoplasma (Tp): ≥6 Tp/cell (Toxoplasma): 6.4 ± 2.7%
Toxo-GIF (Toxoplasma): 63.1%
Average tumor area [5]: 208±40.1 mm^2
Bleeding colonies at the tumor tissue portions (histopathological findings) [6]: no apparent bleeding colonies
Spleen mononuclear cell count in tumor-bearing mice relative to normal mice [6]: 0.64
Number of mononuclear cells per mouse [6]: 8.3 × 10^7

GAEEPVV [peptide No. 6]
Percentage of cells containing Toxoplasma (Tp): 0 Tp (Toxoplasma strain RH [1]; [8]): 55.2 ± 6.2%
Percentage of cells containing Toxoplasma (Tp): 1-5 Tp (Toxoplasma strain RH [1]; [8]): 36.2 ± 8.6%
Percentage of cells containing Toxoplasma (Tp): ≥6 Tp/cell (Toxoplasma strain RH [1]; [8]): 8.6 ± 4.4%
Toxo-GIF (Toxoplasma strain RH [1]; [8]): 51.7%
Percentage of cells containing Toxoplasma (Tp): 0 Tp (Toxoplasma): 59.7 ± 15.8%
Percentage of cells containing Toxoplasma (Tp): 1-5 Tp (Toxoplasma): 29.5 ± 11.0%
Percentage of cells containing Toxoplasma (Tp): ≥6 Tp/cell (Toxoplasma): 10.8 ± 7.1%
Toxo-GIF (Toxoplasma): 51.1%
Average tumor area [5]: 219±40.1 mm^2
Bleeding colonies at the tumor tissue portions (histopathological findings) [6]: no apparent bleeding colonies
Spleen mononuclear cell count in tumor-bearing mice relative to normal mice [6]: 0.72
Number of mononuclear cells per mouse [6]: 9.1 × 10^7
